# Measured values: US5885990A, “Substituted amidinonaphthyl ester derivative” (Torii Pharmaceutical Co., Ltd., priority 1995, dated 1999)
# Counter-ions that a name gives are not always drawn.
# Experiments:
# [1] = test system: pulmonary thrombosis of mouse models (thrombin-induced); assay: Preventive effect on death due to pulmonary thrombosis of mouse models; format: in vivo; design: key: ratio of survival rate to positive control group's survival rate; settings: ddy male mice, 10 mg/kg oral; thrombin 10 units/mouse via caudal vein after 6 hours; survival rate 16 hours after thrombin, as ratio to survival rate of positive control Sepimostat mesilate
# Protocol: (1) Preventive effect on death due to pulmonary thrombosis of mouse models:
# For experiment, ddy male mice after a fast of 6 hours were used and 10 mg/kg of the present compound was orally administered. […] After lapse of 6 hours, 10 units/mouse of thrombin was administered to the mice through caudal vein to cause thrombosis for the mice. After 16 hours from thrombin-induction, mortality was checked and the preventive effect on death (survival rate) was indicated by the ratio to the survival rate of the positive control group.
# [2] = test system: blood plasmin like activity; assay: Determination of blood plasmin like activity using synthetic substrate (plasma after oral dosing); format: in vivo, rat; settings: SD male rats, 100 mg/kg oral, substrate Boc-Val-Leu-Lys-MCA, pH 8.5, 37° C., 30 minutes, Water control 0.07
# Protocol: (2) Test of determination of blood plasmin like activity using synthetic substrate:
# For the test, SD male rats (8 weeks old) after fasted overnight were used, and 100 mg/kg of the present compound was orally administered to the rats, and blood was drawn, with time, from the descending aorta as citrate-containing blood and subjected to centrifugation to obtain plasma. Water was orally administered to the rats of control group and plasma was similarly obtained.
# To the plasma obtained were added 0.1M borate buffer solution (pH 8.5) and Boc-Val-Leu-Lys-MCA and incubation was conducted at 37° C. for 30 minutes.
# [3] = test system: plasminogen activator inhibitor (PAI-1); assay: Measurement of plasminogen activator inhibitor (PAI-1) antigen quantity in plasma; format: in vivo, rat; settings: SD male rats, 100 mg/kg oral; plasma of Test (2); ELISA; Water control 54.2
# Protocol: (3) Test of measurement of plasminogen activator inhibitor (PAI-1) antigen quantity:
# Measurement of PAI-1 antigen quantity was conducted using the plasma obtained in the above Test (2).
# Previously, 100 μl of a diluted 10 mM carbonate buffered solution of monoclonal antibody to PAI-1 was put in each well of a 96-well micro-titer plate and left to stand for 16 hours at 4° C., followed by washing, four times, with 10 mM phosphate buffer solution containing 0.1% Tween 20 and adding a standard solution and the plasma sample. After leaving for 2 hours at room temperature and washing again four times, 100 μl of an enzyme-labelled PAI-1 polyclonal antibody was added to carry out reaction at room temperature for 2 hours. After excess antibody was washed, 100 μl of citric acid buffer solution containing 10 mg of o-phenylenediamine and 0.1% hydrogen peroxide was added, followed by leaving it for 30 minutes at 30° C. to cause color formation. After the reaction was terminated by the addition of 50 μl of 2N sulfuric acid, absorbance at 405 nm was measured by a micro-plate reader to determine the PAI-1 antigen quantity in the plasma sample.
Structure (SMILES),Preventive effect on death [1],Plasmin like activity [2] [nmol/min/mL],PAI-1 antigen quantity [3] [ng/mL]
"CN(C)C(=O)COC(=O)c1c(OC(=O)c2ccc(NC3=NCCN3)cc2)ccc2cc(C(=N)N)ccc12 [Example 48, 6-amidino-1-dimethylcarbamoylmethoxycarbonyl-2-naphthyl 4-[(4,5-dihydro-1H-imidazol-2-yl)amino]benzoate.dihydrochloride]",0.96,,
"N=C(N)c1ccc2c(CC(N)=O)c(OC(=O)c3ccc(N)cc3)ccc2c1 [Example 12, 6-amidino-1-carbamoylmethyl-2-naphthyl 4-aminobenzoate.dihydrochloride]",1.05,,
"CNC(=N)Nc1ccc(C(=O)Oc2ccc3cc(C(=N)N)ccc3c2CC(N)=O)cc1 [Example 26, 6-amidino-1-carbamoylmethyl-2-naphthyl 4-methylaminoiminomethylaminobenzoate.dihydrochloride]",,0.60,
"N=C(N)c1ccc2c(CC(N)=O)c(OC(=O)c3ccc(NC4=NCCN4)cc3)ccc2c1 [Example 1, 6-amidino-1-carbamoylmethyl-2-naphthyl 4-[(4,5-dihydro-1H-imidazol-2-yl)amino]-benzoate.dihydrochloride]",1.16,0.37,28.5
"N=C(N)c1ccc2c(CC(N)=O)c(OC(=O)c3ccc(NC4=NCCS4)cc3)ccc2c1 [Example 31, 6-amidino-1-carbamoylmethyl-2-naphthyl 4-[(4,5-dihydrothiazol-2-yl)amino]-benzoate.dihydrochloride]",1.00,,
"N=C(N)c1ccc2c(CCC(N)=O)c(OC(=O)c3ccc(NC4=NCCN4)cc3)ccc2c1 [Example 5, 6-amidino-1-(2-carbamoylethyl)-2-naphthyl 4-[(4,5-dihydro-1H-imidazol-2-yl)amino]-benzoate.dihydrochloride]",1.00,,
"N=C(NCCO)Nc1ccc(C(=O)Oc2ccc3cc(C(=N)N)ccc3c2CC(N)=O)cc1 [Example 7, 6-amidino-1-carbamoylmethyl-2-naphthyl 4-[(2-hydroxyethyl)aminoiminomethylamino]-benzoate.dihydrochloride]",1.05,0.62,
N=C(NCCN1CCCC1)Nc1ccc(C(=O)Oc2ccc3cc(C(=N)N)ccc3c2CC(N)=O)cc1 [Example 24],,0.55,
"Cl.Cl.N=C(N)Nc1ccc(C(=O)Oc2ccc3cc(C(=N)N)ccc3c2C=CC(N)=O)cc1 [Example 46, 6-amidino-1-(2-carbamoylvinyl)-2-naphthyl 4-aminoiminomethylaminobenzoate.dihydrochloride]",,0.63,
"CC(=O)NCCN=CNCNc1ccc(C(=O)Oc2ccc3cc(C(=N)N)ccc3c2CC(N)=O)cc1.Cl.Cl [Example 3, 6-amidino-1-carbamoylmethyl-2-naphthyl 4-[(2-acetylaminoethyl)iminomethylaminomethylamino]benzoate.dihydrochloride]",1.09,,
"CN(C)c1ccc(C(=O)Oc2ccc3cc(C(=N)N)ccc3c2CC(N)=O)cc1 [Example 15, 6-amidino-1-carbamoylmethyl-2-naphthyl 4-dimethylaminobenzoate.dihydrochloride]",1.05,,
"N=C(N)c1ccc2c(CC(N)=O)c(OC(=O)c3ccc([N+](=O)[O-])cc3)ccc2c1 [Example 11, 6-amidino-1-carbamoylmethyl-2-naphthyl 4-nitrobenzoate.hydrochloride]",1.12,,
"CN(C)CCNC(=N)Nc1ccc(C(=O)Oc2ccc3cc(C(=N)N)ccc3c2CC(N)=O)cc1 [Example 17, 6-amidino-1-carbamoylmethyl-2-naphthyl 4-[(2-dimethylaminoethyl)aminoiminomethylamino]benzoate.trihydrochloride]",,0.62,
"CN=C(NC)Nc1ccc(C(=O)Oc2ccc3cc(C(=N)N)ccc3c2CC(N)=O)cc1 [Example 27, 6-amidino-1-carbamoylmethyl-2-naphthyl 4-methylaminomethyliminomethylaminobenzoate.dihydrochloride]",,0.52,
"COC(=O)Cc1c(OC(=O)c2ccc(NC3=NCCN3)cc2)ccc2cc(C(=N)N)ccc12 [Example 39, 6-amidino-1-methoxycarbonylmethyl-2-naphthyl 4-[(4,5-dihydro-1H-imidazol-2-yl)amino]benzoate.dimethanesulfonate]",1.19,0.58,
